Data taken from ChEMBL document CHEMBL1148184, “Gloiosiphones A and B, Novel Metabolites from the Red Marine Alga Gloiosiphonia verticillaris” (J Nat Prod, 1993).
Activity calls are given as the source filed them.

Assays:
Assay type in all cases: functional, organism-based
[1] = tested on: Bacillus subtilis; assay: Antibacterial activity against Bacillus subtilis ATCC 6081
[2] = tested on: Salmonella typhimurium; assay: Antibacterial activity against Salmonella Typhimurium ATCC 14028; conditions: Salmonella enterica subsp. enterica serovar Typhimurium
[3] = tested on: Escherichia coli; assay: Antibacterial activity against Escherichia coli ATCC 11775
[4] = tested on: Staphylococcus aureus; assay: Antibacterial activity against Staphylococcus aureus ATCC 12600

Measured: Activity

COC[C@@]1(O)C(=O)CC[C@@]12CC(OC)=C(OC)C2=O
inactive: all assays above

COCC1(O)OCCC1=O (stereo not drawn)
inactive: all assays above
